Target: Insulin-like growth factor 1 receptor (Homo sapiens, UniProt P08069)
Test: Inhibition of human IGF1R kinase domain (M954 to C1367 residues) tri-phosphorylated enzyme form expressed in baculovirus based expression system using poly-EY peptide incubated for 2 hrs by luciferase-luciferin coupled chemiluminescent assay

Chain of Insulin-like growth factor 1 receptor (P08069 31-736 limits assumed): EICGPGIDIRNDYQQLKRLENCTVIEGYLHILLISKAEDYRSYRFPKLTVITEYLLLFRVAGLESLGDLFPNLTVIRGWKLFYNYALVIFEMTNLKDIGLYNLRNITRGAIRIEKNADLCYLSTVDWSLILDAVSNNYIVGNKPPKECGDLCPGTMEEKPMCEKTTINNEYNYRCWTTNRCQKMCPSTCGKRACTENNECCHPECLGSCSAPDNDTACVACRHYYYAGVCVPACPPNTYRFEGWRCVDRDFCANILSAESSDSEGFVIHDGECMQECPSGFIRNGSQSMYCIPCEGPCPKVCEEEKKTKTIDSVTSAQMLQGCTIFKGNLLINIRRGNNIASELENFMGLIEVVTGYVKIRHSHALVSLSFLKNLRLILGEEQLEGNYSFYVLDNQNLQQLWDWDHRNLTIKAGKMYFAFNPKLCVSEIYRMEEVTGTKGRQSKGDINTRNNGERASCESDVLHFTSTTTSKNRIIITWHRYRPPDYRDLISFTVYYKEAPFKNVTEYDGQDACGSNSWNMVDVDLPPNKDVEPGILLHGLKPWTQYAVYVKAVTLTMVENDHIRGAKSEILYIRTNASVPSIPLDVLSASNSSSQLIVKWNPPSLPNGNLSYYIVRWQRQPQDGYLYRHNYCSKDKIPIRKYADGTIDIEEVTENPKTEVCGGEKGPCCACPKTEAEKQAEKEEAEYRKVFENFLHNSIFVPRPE
Chain of Insulin-like growth factor 1 receptor (P08069 741-1367 limits assumed): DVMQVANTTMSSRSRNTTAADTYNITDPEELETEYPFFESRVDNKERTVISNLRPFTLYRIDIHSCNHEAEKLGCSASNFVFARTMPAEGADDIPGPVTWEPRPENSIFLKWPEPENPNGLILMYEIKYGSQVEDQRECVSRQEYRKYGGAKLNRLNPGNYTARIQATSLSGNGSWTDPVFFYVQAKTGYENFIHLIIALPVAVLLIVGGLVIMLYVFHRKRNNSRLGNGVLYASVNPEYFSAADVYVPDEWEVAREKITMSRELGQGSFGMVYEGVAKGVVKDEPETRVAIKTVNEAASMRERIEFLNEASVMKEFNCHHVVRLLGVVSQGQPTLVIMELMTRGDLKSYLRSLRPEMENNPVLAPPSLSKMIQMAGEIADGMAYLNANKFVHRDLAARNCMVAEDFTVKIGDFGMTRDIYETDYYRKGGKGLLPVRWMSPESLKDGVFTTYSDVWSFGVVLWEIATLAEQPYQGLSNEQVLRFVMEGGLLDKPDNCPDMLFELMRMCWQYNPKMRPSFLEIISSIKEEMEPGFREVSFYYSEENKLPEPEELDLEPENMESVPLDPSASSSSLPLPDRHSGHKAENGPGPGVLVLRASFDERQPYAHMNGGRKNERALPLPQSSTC

With `COc1cc(Nc2nc(C)cc(Nc3cc(C4CC4)n[nH]3)n2)cc([N+](=O)[O-])c1` the IC50 was no less than 5 µM.

Source: ChEMBL document CHEMBL3882726, “Pyrimidine Derivatives As Kinase Modulators and Method of Use” (2008)
